Laboratory results published in paper PMC8809408 (Frontiers in Pharmacology, 2022).

Each compound was assayed on pseudotyped viruses harboring glycoprotein of vesicular stomatitis virus (VSV).
Assay type: cell-based

Row | Structure (SMILES) | luciferase activity (infection by VSV-G pseudotyped viruses)
1 | CN(C)CCCC1(c2ccc(F)cc2)OCc2cc(C#N)ccc21 (stereo not shown) [Citalopram] | remained ineffective
2 | CN(C)CCCN1c2ccccc2CCc2ccc(Cl)cc21 [Clomipramine] | reduced the infection
3 | CNCCC(Oc1ccc(C(F)(F)F)cc1)c1ccccc1 (stereo not shown) [Fluoxetine] | reduced the infection
4 | OCCN1CCN(CCC=C2c3ccccc3Sc3ccc(C(F)(F)F)cc32)CC1 [Flupenthixol] | reduced the infection
5 | COCCCC/C(=N\OCCN)c1ccc(C(F)(F)F)cc1 [Fluvoxamine] | remained ineffective
6 | Fc1ccc([C@@H]2CCNC[C@H]2COc2ccc3c(c2)OCO3)cc1 [Paroxetine] | remained ineffective
7 | CCOc1ccccc1OC(c1ccccc1)C1CNCCO1 (stereo not shown) [Reboxetine] | reduced the infection
